Data set [1] can be described thus: In vitro metabolic stability, mouse liver microsomes. (In general: Liver microsomes are vesicles of endoplasmic reticulum, rich in cytochrome P450 enzymes.)
Data set [2] in a line: In vitro metabolic stability, human liver microsomes.
For the next data set, the system named is K1 CQ-resistant strain. Conditions: read-out: K1 parasite IC50.
For another data set, the system named is β-hematin (βH) formation. In words: NP-40 detergent mediated β-hematin inhibition assay. In kind it is biochemical. The settings on record: read-out: βH inhibition IC50; NP-40 assay.
For data set [3], the system named is D10 strain of P. falciparum. In words: Parasite growth inhibition, CQ-sensitive D10 strain. Format: cell-based, Plasmodium falciparum.
The next data set is described as follows: Kinetic solubility. The settings on record: for Kinetic solubility FaSSIF / Kinetic solubility pH 6.5: pH 6.5.
Data set [4] can be described thus: In vitro metabolic stability, rat liver microsomes.
Data set [5] concerns NF54 strain of P. falciparum. In words: Parasite growth inhibition, CQ-sensitive NF54 strain. In kind it is cell-based, Plasmodium falciparum.
For data set [6], the system named is Chinese hamster ovarian (CHO) cell line. The settings on record: read-out: CHO IC50.
A short description of data set [7]: Association constant with Fe. The settings on record: for logK (association constant with Fe(III)PPIX): 1:1 complex, 7.5 μM hematin, 40% v/v DMSO, pH 7.5; for Binding constant ratio relative to 12c (K/K12c): from logK values. Format: binding.
Data set [8] deals with parasitized erythrocyte, CQ-sensitive D10 strain. In words: Inoculum effect measurement of cellular accumulation. In kind it is cell-based, Plasmodium falciparum. Conditions: IC50 vs initial parasitemia.
Data set [9] deals with D6 strain of P. falciparum. Conditions: read-out: parasite activity against the D6 strain, HTS; cited from earlier work.
The conditions of data set [10]: 1:1 complex, 40% DMSO; cited from earlier work.
The mark [11] stands for this setting: read-out: D10 parasite IC50, CQ-sensitive D10 strain.
[12] abbreviates: read-out: NF54 parasite IC50, CQ-sensitive NF54 strain.

Like-named read-outs stand apart in the source and are kept apart here. Marks after values point to notes of the source that are not given here.

Here are results for 19 compounds from paper PMC4945415 (Journal of medicinal chemistry, 2016).

Turning to “5-(tert-Butyl)-N,N-di(pyridin-3-yl)isophthalamide [Compound 15i]”, the Degradation half-life worked out at 0.873 h in data set [1], 2.365 h in data set [2] and 1.55 h in data set [4]. The “Hepatic extraction (EH)” value turned out to be 0.6 in [1], 0.4 in data set [2] and 0.4 in data set [4]. The In vitro clearance was determined as 130.3 μL/min/mg protein in data set [1], 14.1 μL/min/mg protein in data set [2] and 33.5 μL/min/mg protein in data set [4]. Also, the IC50 was found to be 1.7 ± 0.4 µM in the data set with K1 CQ-resistant strain; 6.8 ± 0.1 µM with β-hematin (βH) formation; 0.7 ± 0.1 µM in data set [3] (setting [11]); 0.6 ± 0.1 µM in data set [5] (setting [12]); 185 µM in data set [6]. In the data set “Kinetic solubility”, the “Kinetic solubility FaSSIF” value stood at 153.6 µM. For the same compound, the “Kinetic solubility pH 2” value in “Kinetic solubility” came out at 197.2 μM. For the same compound, the “Kinetic solubility pH 6.5” value in the data set “Kinetic solubility” came out at 92.7 μM.
With “5-(tert-Butyl)-N,N-di(pyridin-4-yl)isophthalamide [Compound 15h]”, the IC50 in the data set on β-hematin (βH) formation amounted to 13.3 ± 0.7 µM; in data set [5] (setting [12]), 1.6 ± 0.2 µM.
For “5-(tert-Butyl)-N,N-diphenylisophthalamide [Compound 15j]”, in that order: greater than 1000 µM and 8.1 ± 0.5 µM.
As to “5-Cyano-N,N-di(pyridin-4-yl)isophthalamide [Compound 15d]”, the IC50 was found to be 6.34 ± 0.09 µM in the data set on β-hematin (βH) formation, 2 ± 0.2 µM in data set [3] (setting [11]) and 1.9 ± 0.2 µM in [5] (setting [12]).
Take “5-Cyano-N,N-diphenylisophthalamide [Compound 15e]”: the IC50 in the data set with β-hematin (βH) formation stood at 4.4 ± 0.2 µM; in data set [3] (setting [11]), 5.2 µM.
As to “5-Methoxy-N,N-di(pyridin-4-yl)isophthalamide [Compound 15m]”, the IC50 was found to be 22 ± 1 µM in the data set on β-hematin (βH) formation and 3 ± 0.5 µM in [5] (setting [12]).
For “5-Methoxy-N,N-diphenylisophthalamide [Compound 15n]”, in that order: greater than 1000 µM and 37 ± 13 µM.
On to “5-Methyl-N,N-di(pyridin-4-yl)isophthalamide [Compound 15f]”, for which the IC50 with β-hematin (βH) formation stood at 8 ± 1 µM. In data set [7], the “logK (association constant with Fe(III)PPIX)” value (from here on “logK”) is 3.92 ± 0.21 and the “Binding constant ratio relative to 12c (K/K12c)” value is reported as 5.24. The IC50 in data set [5] (setting [12]) was determined as 2.5 ± 0.6 µM.
Turning to “5-Methyl-N,N-diphenylisophthalamide [Compound 15g]”, the IC50 in the data set on β-hematin (βH) formation was greater than 1000 µM; in [5] (setting [12]), 146 ± 1 µM.
For “5-Nitro-N,N-di(pyridin-3-yl)isophthalamide [Compound 15b]”, in that order: 4.7 ± 0.7 µM and 1.32 ± 0.04 µM.
In the case of “5-Nitro-N,N-di(pyridin-4-yl)isophthalamide [Compound 15a]”, the Degradation half-life in [1], in data set [2] and in data set [4] was greater than 2.5 h in each case. The “Hepatic extraction (EH)” value in [1] was less than 0.33; in [2], less than 0.42; in [4], less than 0.30. Also, the In vitro clearance in [1], in data set [2] and in data set [4] was less than 11.6 μL/min/mg protein in each case. Besides, the “inoculum effect / cellular accumulation” value in [8] is “larger accumulation ratios”. The IC50 is 4.3 ± 0.1 µM in the data set on β-hematin (βH) formation; 0.9 ± 0.1 µM in data set [3] (setting [11]); 0.19 µM in data set [9]; 0.7 ± 0.2 µM in [5] (setting [12]); greater than 275 µM in data set [6]. For the same compound, in “Kinetic solubility”, the “Kinetic solubility FaSSIF” value is 13 µM. Moreover, the “Kinetic solubility pH 2” value in “Kinetic solubility” is 199.7 μM. Further, the “Kinetic solubility pH 6.5” value in “Kinetic solubility” is reported as less than 5 μM.
On to “5-Nitro-N,N-diphenylisophthalamide [Compound 15c]”, for which the IC50 in the data set on β-hematin (βH) formation was found to be 7 ± 0.2 µM; in data set [5] (setting [12]) it was 1.4 ± 0.2 µM.
In the case of `CCN(CC)CCCC(C)Nc1ccnc2cc(Cl)ccc12` (stereo not shown) [CQ, chloroquine, reference compound], the “logK” value in [10] is reported as 5.52 ± 0.03 ^a. The IC50 in [3] (Plasmodium falciparum, D10, read-out: D10 parasite IC50) was determined as 0.021 ± 0.002 µM; in [5] (Plasmodium falciparum, NF54, read-out: NF54 parasite IC50) it was 0.008 ± 0.002 µM.
Regarding `O=C(Nc1ccncc1)c1cc([N+](=O)[O-])cc([N+](=O)[O-])c1` [Compound 12c, 3,5-Dinitro-N-(pyridin-4-yl)benzamide], in data set [7], the “logK” value is recorded as 3.20 ± 0.36 and the “Binding constant ratio relative to 12c (K/K12c)” value is given as 1.
With `O=C(Nc1ccccc1)c1cc(C(=O)Nc2nc3ccccc3[nH]2)cc([N+](=O)[O-])c1` [Compound 18, N^1-(1H-Benzo[d]imidazol-2-yl)-5-nitro-N^3-phenylisophthalamide], the IC50 in data set [5] (Plasmodium falciparum, NF54, read-out: parasite activity (maximum dose concentration)) is greater than 249 µM.
“N,N-Di(pyridin-4-yl)isophthalamide [Compound 15k]”: the IC50 with β-hematin (βH) formation was determined as 507 ± 33 µM; in data set [5] (setting [12]), 9 ± 4 µM.
“N,N-Di(pyridin-4-yl)pyridine-2,6-dicarboxamide [Compound 15o]”: the IC50 with β-hematin (βH) formation is 260 ± 7 µM; in data set [5] (setting [12]) it was greater than 315 µM.
For “N,N-Diphenylpyridine-2,6-dicarboxamide [Compound 15p]”, in that order: greater than 1000 µM and greater than 315 µM.
For the compound “N,N-bis(4-((Dimethylamino)methyl)phenyl)-5-nitroisophthalamide [Compound 17]”, in data set [8], the “inoculum effect / cellular accumulation” value is recorded as “insignificant inoculum effect”. The figures for the IC50 (in the data set on β-hematin (βH) formation; in data set [5] (setting [12])) were 7.9 ± 0.2 µM and 1.5 ± 0.2 µM, respectively.
